# From patent publication US20160168155A1, “POLYMORPH OF SYK INHIBITORS” (GILEAD CONNECTICUT, INC., priority 2013, published 2016)
# Assays:
# [1] = Intrinsic dissolution rate, rotating disk apparatus; type: physicochemical
# Method: Intrinsic dissolution rate experiments were conducted using a rotating disk apparatus. Disks of drug substance were prepared by directly compressing 100 mg of powder of polymorph Form 3 in a die at a pressure of 2500 psi for 2 minutes using a hydraulic press (Carver Press, Fred Carver, NJ, USA). The exposed surface area for the resulting disk was 0.5 cm^2. A regular USP dissolution apparatus maintained at 37±0.5° C. was used for the dissolution study. Each dissolution vessel contained 500 mL of aqueous dissolution medium of 0.05 N HCl or pH 6.8 20 mM phosphate buffer with 1% cetyltrimetrylammonium bromide (CTAB). The disk holder (die) was half-immersed into the dissolution medium and rotated at 100 rpm. Samples were withdrawn at specified time intervals and analyzed by HPLC.
# The dissolution rate (J) of solid per unit surface area may be described by a diffusion model:
# Where D is the diffusion coefficient of the solute, h is the diffusion layer thickness during dissolution at the surface of solid, Cs is the saturation solubility of the solid in the dissolution medium, and Cb is its concentration in the bulk medium. Under sink condition (Cs>>Cb) Equation 2 is reduced to: […]
# where dissolution rate is directly proportional to the saturated solubility.
# [2] = Hygroscopicity by dynamic vapor sorption (Q5000SA), Example 6A; type: physicochemical; details: for hygroscopicity: 0 to 90% RH
# Method: Hygroscopicity of polymorph Form 3 and polymorph Form 7 at 25° C. was determined by dynamic vapor sorption (DVS) using an automated vapor sorption balance (Q5000SA; TA instruments, New Castle, Del.). Hygroscopicity was studied as a function of relative humidity (RH) over the range of 0 to 90%. Approximately 10 mg of solid sample was placed directly onto the 13 mm quartz DVS sample cup and equilibrated at 0% relative humidity (RH) until a constant weight was achieved. After equilibration, the RH was increased in increments of 10% to reach 90%, and the water sorption was monitored. For desorption, the relative humidity was deceased in a similar manner to accomplish a full sorption/desorption cycle.
# For all experiments, the instrument was operated in dm/dt mode (mass variation over time) to determine when equilibrium was reached. A fixed dm/dt value of 0.0010% min^−1 was selected for all RH segments. A maximum stage of 360 minutes and a minimum stage of 60 minutes were selected for these experiments.
# [3] = Moisture sorption isotherms (Hiden IGASorp / SMS DVS Intrinsic), Example 6B; type: physicochemical; details: for water uptake up to 90% RH / hygroscopicity: 25° C.; for hygroscopicity: sorption isotherm, 0-90% RH
# Method: Sorption isotherms were obtained using a Hiden IGASorp moisture sorption analyser, controlled by CFRSorp software. The sample temperature was maintained at 25° C. by a Huber re-circulating water bath. The humidity was controlled by mixing streams of dry and wet nitrogen, with a total flow rate of 250 ml/min. The relative humidity (RH) was measured by a calibrated Vaisala RH probe (dynamic range of 0-95% RH), located near the sample. The weight change, (mass relaxation) of the sample as a function of % RH was constantly monitored by the microbalance (accuracy ±0.001 mg).
# 10-20 mg of sample was placed in a tared mesh stainless steel basket under ambient conditions. The sample was loaded and unloaded at 40% RH and 25° C. (typical room conditions).
# A moisture sorption isotherm was performed as outlined in Table 1 below (2 scans giving 1 complete cycle). The standard isotherm was performed at 25° C. at 10% RH intervals over a 0-90% RH range.
# The software uses a least squares minimization procedure together with a model of the mass relaxation, to predict an asymptotic value. The measured mass relaxation value must be within 5% of that predicted by the software, before the next % RH value is selected. The minimum equilibration time was set to 1 hour and the maximum to 4 hours. Data analysis was carried out using IGASorp Systems Software v 6.50.55. The sample was recovered after completion of the isotherm and re-analyzed by XRPD.
# In other cases, sorption isotherms were also obtained using a SMS DVS Intrinsic moisture sorption analyser, controlled by DVS Intrinsic Control software v1.0.1.2 (or v 1.0.1.3). The sample temperature was maintained at 25° C. by the instrument controls. The humidity was controlled by mixing streams of dry and wet nitrogen, with a total flow rate of 200 ml/min. The relative humidity was measured by a calibrated Rotronic probe (dynamic range of 1.0-100% RH), located near the sample. The weight change, (mass relaxation) of the sample as a function of % RH was constantly monitored by the microbalance (accuracy ±0.005 mg).
# 5-20 mg of sample was placed in a tared mesh stainless steel basket under ambient conditions. The sample was loaded and unloaded at 40% RH and 25° C. (typical room conditions). A moisture sorption isotherm was performed as outlined in Table 2 below (2 scans giving 1 complete cycle). The standard isotherm was performed at 25° C. at 10% RH intervals over a 0-90% RH range. Data analysis was carried out using Microsoft Excel using DVS Analysis Suite v6.2 (or 6.1 or 6.0). The sample was recovered after completion of the isotherm and re-analyzed by XRPD.
# [4] = PK study in pentagastrin- or famotidine-pretreated dogs, oral tablets; details: famotidine-pretreated dogs, tablet
# [5] = DVS, 25° C., listed as Polymorph Form 3
# [6] = DVS, 25° C., listed as Polymorph Form 7
smiles,measurement,setting,value
c1cn2cc(-c3ccc4cn[nH]c4c3)nc(Nc3ccc(N4CCOCC4)cc3)c2n1 [polymorph Form 3],IDR higher than mono MSA,[1]; pH 6.8,400 fold
same,Intrinsic dissolution rate in pH 6.8 20 mM phosphate with 1% CTAB,"[1]; pH 6.8, rotating disk, 37° C., 100 rpm",1.2 mg/min/cm^2
same,hygroscopicity,"[2]; DVS, 25° C.",not observed to be hygroscopic
same,hygroscopicity,[2]; [5],not observed to be hygroscopic at 70% RH and below
same,water adsorption / weight gain at 90% RH,[2]; [5],~28%
same,solid form after DVS experiment (XRPD),[2]; sample collected at end of DVS,converted to Form 7
same,water uptake up to 90% RH,[3]; listed as Form 3,~20 wt. %
same,solid form after DVS analysis (XRPD),[3]; sample after DVS analysis,converted to Form 7
same,hygroscopicity,[3],not hygroscopic
same,hygroscopicity,[3]; listed as Polymorph Form 3,not observed to be hygroscopic at 70% RH and below
same,Solubility in water,Solubility in water,>100 mg/mL
same,final pH,Solubility in water; final pH of the water solubility sample,(final pH < 1.5)
same,increase of AUC0-24 compared to the mono-MSA salt formulation,[4],more than 10 fold
c1cn2cc(-c3ccc4cn[nH]c4c3)nc(Nc3ccc(N4CCOCC4)cc3)c2n1 [polymorph Form 7],hygroscopicity,[2]; [6],highly hygroscopic
same,weight gain at 40% RH,"[2]; DVS, 25° C., 40% RH",~10%
same,water adsorption / weight gain at 90% RH,[2]; [6],~22%
same,water uptake up to 90% RH,[3]; listed as Polymorph Form 7,~21 wt. %
same,solid form below the stable RH interval,[3]; below 30% RH,becomes amorphous
same,RH interval in which the form is stable,[3]; room temperature,30-60 % RH
same,hygroscopicity,[3]; listed as Polymorph Form 7,highly hygroscopic
"c1cn2cc(-c3ccc4cn[nH]c4c3)nc(Nc3ccc(N4CCOCC4)cc3)c2n1 [Free Base, Compound of Formula I]",Intrinsic dissolution rate in pH 1.3 0.05N HCl with 0.9% NaCl,"[1]; pH 1.3, rotating disk, 37° C., 100 rpm",0.00046 mg/min/cm^2
same,Intrinsic dissolution rate in pH 6.8 20 mM phosphate with 1% CTAB,"[1]; pH 6.8, rotating disk, 37° C., 100 rpm, listed as free base of Formula I",no free base was detectable
same,Solubility in water,Solubility in water,<0.00005 mg/mL
